Test results: PMC4184574, “Enantioselectivity in the cytochrome P450-dependent conversion of tegafur to 5-fluorouracil in human liver microsomes” (Pharmacology Research & Perspectives, 2013)
Values joined by “and” are separate entries in the source; they are usually repeats but may differ in a detail not shown here. Equal values may be shown once.

Key:
[1] = 5-FU formation from FT enantiomers in human hepatic microsomes (kinetic analysis, formation rate); assay type: in vitro ADME; conditions: for Km / Vmax: monophasic kinetics; for Km1 / Vmax1 / CLint1: high-affinity component; for CLint1: Vmax/Km; for Km2 / Vmax2: low-affinity component
Description: (§1) (pooled preparations from 20 donors; Kansas City, KS). […] Insect microsomes expressing only NADPH-P450 oxidoreductase and cytochrome b5 were also used as control. These enzymes were stored at −80°C until use.
(§2) 5-FU formed from FT was subjected to extensive metabolism by dihydropyrimidine dehydrogenase (DPD) contaminating human hepatic preparations. Therefore, a potent DPD inhibitor, CDHP, was always added to avoid the unexpected loss of 5-FU (Ikeda et al. [2000]; Yamamiya et al. [2010]). Incubation mixture for hepatic microsomal metabolism contained FT, microsomes (1 mg protein/mL), 0.1 mmol/L CDHP, and an NADPH-generating system consisting of 1.3 mmol/L β-NADP^+, 3.3 mmol/L glucose-6-phosphate, 3.3 mmol/L magnesium chloride, and 0.4 units glucose-6-phosphate dehydrogenase in 100 mmol/L Tris (pH 7.4). Metabolic reaction by S9 and cytosol (each 2 mg protein/mL) was carried out in 100 mmol/L phosphate (pH 7.4) because TPase requires phosphate ions for catalyzing the reaction. In some cases, insect microsomes expressing recombinant CYP isoforms (20 pmol/mL) were added to the incubation mixtures in either 50, 100 mmol/L phosphate (pH 7.4) or 100 mmol/L Tris (pH 7.4), depending on supplier's recommendation. […] The reaction for the assay of FT metabolism was initiated by adding the substrate, following preincubation for 5 min at 37°C. […] The incubation times of microsomes, cytosol, and S9 were 15, 15, and 30 min, respectively. After centrifugation, the supernatant was collected and stored at −80°C until the determination of 5-FU. Because a small portion of FT is nonenzymatically converted to 5-FU, the content of 5-FU spontaneously formed was subtracted from total yield obtained after incubation to correct the activity. The spontaneous degradation of FT to 5-FU was evaluated using enzymes inactivated by heating them at 100°C for 5 min.
(§3) Concentration of 5-FU was determined using a LC/MS/MS system. […] The mobile phase consisted of 10 mmol/L ammonium acetate/acetonitrile 10:90 (v/v). The MS/MS analysis was performed in negative ionization mode under multiple reaction monitoring (MRM) mode, using mass transitions, m/z 128.6/41.8 for 5-FU and m/z 130.6/42.8 for ^15N2-5-FU, an internal standard (IS). […] For quantification of 5-FU, the calibration curves were linear over the range 2–1000 ng/mL.
(§4) In determining kinetic parameters, FT concentration ranged from 0.03 to 10 mmol/L. All reactions were performed in a linear range of 5-FU formation with respect to protein or CYP concentrations and incubation time. Eadie–Hofstee plot analysis was used to characterize enzyme kinetics in which kinetic parameters were estimated by fitting the data to the following equations (1) or (2): [drawing 1] (1) [drawing 2] (2) where V is 5-FU formation rate, S is FT concentration in the incubation mixture, Km1 and Km2 are affinity constants for high- and low-affinity components, respectively, and Vmax1 and Vmax2 are maximum velocities for high- and low-affinity components, respectively.

CYP1A2 = target: T1, CYP1A2 (Homo sapiens, UniProt P05177); experiment: 5-FU formation from FT enantiomers by cDNA-expressed CYP1A2 (kinetics, velocity, RAF contribution); assay type: in vitro ADME; conditions: for CYP contribution: CYP1A2, RAF method, 30 μmol/L
T1 construct: purchased BD Gentest; host or cells: insect cells (baculovirus)
T1 sequence (P05177 2-516 limits assumed): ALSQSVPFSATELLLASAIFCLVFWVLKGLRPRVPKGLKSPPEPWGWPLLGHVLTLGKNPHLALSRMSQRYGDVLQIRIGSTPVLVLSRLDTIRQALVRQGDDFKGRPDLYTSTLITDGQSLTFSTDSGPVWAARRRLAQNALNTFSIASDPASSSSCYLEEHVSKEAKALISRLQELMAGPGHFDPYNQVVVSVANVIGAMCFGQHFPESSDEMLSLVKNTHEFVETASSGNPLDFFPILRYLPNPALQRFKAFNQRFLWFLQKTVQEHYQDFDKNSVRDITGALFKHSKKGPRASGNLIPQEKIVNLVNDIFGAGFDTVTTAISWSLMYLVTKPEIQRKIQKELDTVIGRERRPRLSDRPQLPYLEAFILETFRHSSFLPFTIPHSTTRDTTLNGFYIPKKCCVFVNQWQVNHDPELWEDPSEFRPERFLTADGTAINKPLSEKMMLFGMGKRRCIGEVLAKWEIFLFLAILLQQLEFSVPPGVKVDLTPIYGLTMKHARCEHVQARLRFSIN
Description: as §1, §2, §3, §4
The contribution of CYPn to the metabolism of R- and S-FT at their concentration of 30 μmol/L was subsequently calculated using equation (4). [drawing 4] (4) VCYPn = 5-FU formation rate in cDNA-expressed CYPn.

[2] = Mean ± SD of five human livers, total (for R-FT sum of high- and low-affinity components)
[3] = microsomes HG32, total (for R-FT sum of high- and low-affinity components)
[4] = microsomes HH31, total (for R-FT sum of high- and low-affinity components)
[5] = microsomes HH74, total (for R-FT sum of high- and low-affinity components)
[6] = microsomes HH94, total (for R-FT sum of high- and low-affinity components)
[7] = human hepatic microsomes, higher

Structure (SMILES): O=c1[nH]c(=O)n([C@@H]2CCCO2)cc1F [S-FT]
- Km ([1]; Mean ± SD of five human livers): 1600 ± 600 µM
- Vmax ([1]; Mean ± SD of five human livers): 1021 ± 692 pmol/min/mg
- CLint [1, 2]: 0.73 ± 0.53 µL/min/mg
- Km ([1]; microsomes HG32): 1400 µM
- Vmax ([1]; microsomes HG32): 468 pmol/min/mg
- CLint [1, 3]: 0.34 µL/min/mg
- Km ([1]; microsomes HH31): 1400 µM
- Vmax ([1]; microsomes HH31): 2205 pmol/min/mg
- CLint [1, 4]: 1.6 µL/min/mg
- Km ([1]; microsomes HH74): 2600 µM
- Vmax ([1]; microsomes HH74): 583 pmol/min/mg
- CLint [1, 5]: 0.23 µL/min/mg
- Km ([1]; microsomes HH81): 1100 µM
- Vmax ([1]; microsomes HH81): 915 pmol/min/mg
- CLint ([1]; microsomes HH81, total): 0.81 µL/min/mg
- Km ([1]; microsomes HH94): 1300 µM
- Vmax ([1]; microsomes HH94): 936 pmol/min/mg
- CLint [1, 6]: 0.71 µL/min/mg
- CYP contribution (CYP1A2): 4.4%
- Km (CYP1A2; cDNA-expressed CYP1A2): > 10000 µM

Structure (SMILES): O=c1[nH]c(=O)n([C@H]2CCCO2)cc1F [R-FT]
- Km1 ([1]; Mean ± SD of five human livers): 0.12 mmol/L and 0.12 ± 0.03 mmol/L
- Vmax1 ([1]; Mean ± SD of five human livers): 838 ± 669 pmol/min/mg
- CLint1 ([1]; Mean ± SD of five human livers): 6.2 ± 4.4 µL/min/mg
- CLint [1, 2]: 6.4 ± 4.4 µL/min/mg
- Km2 ([1]; Mean ± SD of human livers): 2.7 mmol/L and 2.7 ± 0.3 mmol/L
- Vmax2 ([1]; Mean ± SD of human livers): 613 ± 236 pmol/min/mg
- CLint (Vmax/Km) of high-affinity component compared with the low-affinity one [1, 7]: approximately 27 fold
- CLint value of R-FT relative to that of S-FT [1, 7]: 8.8 fold
- Km1 ([1]; microsomes HG32): 0.11 mmol/L
- Vmax1 ([1]; microsomes HG32): 355 pmol/min/mg
- CLint1 ([1]; microsomes HG32): 3.2 µL/min/mg
- Km2 ([1]; microsomes HG32): 3.0 mmol/L
- Vmax2 ([1]; microsomes HG32): 302 pmol/min/mg
- CLint [1, 3]: 3.3 µL/min/mg
- Km1 ([1]; microsomes HH31): 0.14 mmol/L
- Vmax1 ([1]; microsomes HH31): 1816 pmol/min/mg
- CLint1 ([1]; microsomes HH31): 13 µL/min/mg
- Km2 ([1]; microsomes HH31): 2.9 mmol/L
- Vmax2 ([1]; microsomes HH31): 859 pmol/min/mg
- CLint [1, 4]: 13 µL/min/mg
- Km1 ([1]; microsomes HH74): 0.093 mmol/L
- Vmax1 ([1]; microsomes HH74): 146 pmol/min/mg
- CLint1 ([1]; microsomes HH74): 1.6 µL/min/mg
- Km2 ([1]; microsomes HH74): 2.7 mmol/L
- Vmax2 ([1]; microsomes HH74): 709 pmol/min/mg
- CLint [1, 5]: 1.8 µL/min/mg
- Km1 ([1]; microsomes HH81): 0.16 mmol/L
- Vmax1 ([1]; microsomes HH81): 1162 pmol/min/mg
- CLint1 ([1]; microsomes HH81): 7.1 µL/min/mg
- CLint ([1]; microsomes HH81, total): 7.1 µL/min/mg
- Km1 ([1]; microsomes HH94): 0.12 mmol/L
- Vmax1 ([1]; microsomes HH94): 712 pmol/min/mg
- CLint1 ([1]; microsomes HH94): 6.1 µL/min/mg
- Km2 ([1]; microsomes HH94): 2.3 mmol/L
- Vmax2 ([1]; microsomes HH94): 583 pmol/min/mg
- CLint [1, 6]: 6.4 µL/min/mg
- contribution of the high-affinity component to the conversion to 5-FU ([1]; substrate concentration well below the Km value): over 90%
- CYP contribution (CYP1A2): 7.5%
- CLint (CYP1A2; cDNA-expressed CYP1A2): 4.9 nL min^−1 pmol^−1 CYP
- Km (CYP1A2; cDNA-expressed CYP1A2): 1100 ± 100 µM
- Vmax (CYP1A2; cDNA-expressed CYP1A2): 5.6 ± 0.3 pmol min^−1 pmol^−1 CYP
